What was measured:
PMM2-CDG patients [1] = test: Goal attainment scale (GAS) in patients on epalrestat; format: in vivo, human
Procedure: (§1) Two patients were started on epalrestat on single patient investigational new drug (IND) (P5 IRB: 19-010017; IND #145262; P6 Protocol PMM2-CDG-001/A). Epalrestat was initiated on the parents' own initiative in the third patient (P7). Two patients were in their second year of epalrestat treatment, while the third, was in the 3rd year of treatment. Physical, neurological, and biochemical examinations were performed in 3 PMM2-CDG patients at baseline, and at every three months after the start of the epalrestat treatment. Patients underwent NPCRS phenotype severity assessment and biological sampling at every visit. Epalrestat (Ono Pharmaceuticals, Osaka, Japan) was taken orally 3 times per day (TID) before meals in a divided dose, with dosage escalation throughout the treatment. The pharmacological profile of epalrestat was as described elsewhere (Ligezka et al, Ann. Neurol., 90(6):887-900 (2021)). The starting dosage in P5 and P6 was 0.8 mg/kg/day, while P7 was started on 0.5 mg/kg/day due to their young age. P7 dosage was increased to 0.8 mg/day after a month, once safety was established. Blood and urine samples were collected routinely. Urine polyols, carbohydrate deficient transferrin (CDT), anti-thrombin III (ATIII), liver enzymes (ALT, AST), and complete blood count (CBC) were performed. Modified Brief Ataxia Rating Scale was used to assess ataxia in the 2 patients (P5, P6; P7 was not eligible for the test due to age). The modified BARS scale included Archimedes spiral test, but not the abnormalities of the ocular pursuit system and the scale range was 0-54. Goal attainment scale (GAS) was administered as described per study protocol (ClinicalTrials.gov Identifier: NCT04199000). Quantification of goal attainment levels is done on a 5-point scale ranging from −2 to +2, with 0 indicating the expected level of goal attainment. Three individual goals were established by each patient (parent) at baseline and the progress was annually assessed. Goals included: walking without assistance (Goal #1 P5, P6), communicating with strangers (Goal #2 P5, P6), independent toilet training (Goal #3 P5), to be able to have a healthy and independent life (Goal #3 P6), to be able to equally play with peers (Goal #1 P7), normalization of laboratory results (liver enzymes) (Goal #2 P7), and improved balance to stand and walk (Goal #3 P7).

PMM2-CDG patients [2] = test: Modified Brief Ataxia Rating Scale (BARS) in patients on epalrestat; format: in vivo, human
Text: The primary objective of the study was to assess the efficacy and safety of epalrestat treatment in 3 PMM2-CDG pediatric subjects prior to a planned Phase III clinical trial (Oral epalrestat therapy in Pediatric Subjects with PMM2-CDG, NCT04925960). The secondary objective was to assess the ability of epalrestat to improve clinically relevant aspects of PMM2-CDG such as increased urine polyols (sorbitol, mannitol), abnormal glycosylation (carbohydrate deficient transferrin), abnormal coagulation (ATIII=antithrombin III), impaired liver function (ALT=Alanine Transaminase, AST=Aspartate Transaminase), neurologic function (Brief Ataxia Rating Scale=BARS), severity of phenotype (Nijmegen Pediatric CDG Rating Scale=NPCRS). The ability of epalrestat to inhibit polyol production was monitored by evaluating urine polyol levels (sorbitol, mannitol), which are elevated in PMM2-CDG. Next, carbohydrate deficient transferrin, which is abnormal in PMM2-CDG, was evaluated in order to assess improvement of glycosylation following epalrestat treatment. CDT mono-oligo/dioligo ratio and a-oligo/dioligo ratio are used to evaluate glycosylation abnormalities. Transferrin normally occurs with two glycan chains (di-oligo). In the case of glycosylation abnormalities, glycan chains are missing (A-oligo transferrin has no glycan chains, mono-oligo has one glycan chain, di-oligo has two glycan chains). The higher ratio of a-oligo/di-oligo and mono-oligo/di-oligo indicate glycosylation abnormalities are present. Therefore, improvement in a-oligo/di-oligo and mono-oligo/di-oligo ratios can be used to monitor improvement or worsening of glycosylation status. Changes in the liver enzymes AST, ALT, which are frequently elevated in PMM2-CDG, were monitored both as part of a safety study and as part of monitoring clinical improvement in coagulation. Neurologic improvement was assessed by modified BARS scores in 2 patients (3rd patient was not eligible for the test due to age at the start of the trial). NPCRS was assessed at every visit to assess changes in the severity of the patients' phenotype. Additionally, the frequency of adverse events, changes in vital signs, complete blood count, and changes in BMI were monitored.
as §1, with “Quantification of goal attainment levels is done on a 5-point scale ranging from −2 to +2, with 0 indicating the expected level of goal attainment. Three individual goals were established by each patient (parent) at baseline and the progress was annually assessed. Goals included: walking without assistance (Goal #1 P5, P6), communicating with strangers (Goal #2 P5, P6), independent toilet training (Goal #3 P5), to be able to have a healthy and independent life (Goal #3 P6), to be able to equally play with peers (Goal #1 P7), normalization of laboratory results (liver enzymes) (Goal #2 P7), and improved balance to stand and walk (Goal #3 P7).” left out

SMILES: CC(/C=C1\SC(=S)N(CC(=O)O)C1=O)=C\c1ccccc1 [epalrestat]
- Goal attainment scale, Goal 2 (scale −2 to +2) (PMM2-CDG patients [1]; P5, 12 months, 1.5 mg/kg day, communicating with strangers, baseline −2): −1
- Goal attainment scale, Goal 3 (scale −2 to +2) (PMM2-CDG patients [1]; P5, 12 months, 1.5 mg/kg day, independent toilet training, baseline −2): −2
- Goal attainment scale, Goal 1 (scale −2 to +2) (PMM2-CDG patients [1]; P5, 12 months, 1.5 mg/kg day, walking without assistance, baseline −2): −1
- Goal attainment scale, Goal 2 (scale −2 to +2) (PMM2-CDG patients [1]; P5, 24 months, 2 mg/kg day, communicating with strangers, baseline −2): −1
- Goal attainment scale, Goal 3 (scale −2 to +2) (PMM2-CDG patients [1]; P5, 24 months, 2 mg/kg day, independent toilet training, baseline −2): −2
- Goal attainment scale, Goal 1 (scale −2 to +2) (PMM2-CDG patients [1]; P5, 24 months, 2 mg/kg day, walking without assistance, baseline −2): −1
- Goal attainment scale, Goal 2 (scale −2 to +2) (PMM2-CDG patients [1]; P6, 12 months, 1.5 mg/kg day, communicating with strangers, baseline −1): −1
- Goal attainment scale, Goal 3 (scale −2 to +2) (PMM2-CDG patients [1]; P6, 12 months, 1.5 mg/kg day, healthy and independent life, baseline −2): −2
- Goal attainment scale, Goal 1 (scale −2 to +2) (PMM2-CDG patients [1]; P6, 12 months, 1.5 mg/kg day, walking without assistance, baseline −2): −1
- Goal attainment scale, Goal 1 (scale −2 to +2) (PMM2-CDG patients [1]; P7, 12 months, 1.5 mg/kg day, equally play with peers, baseline −2): −2
- Goal attainment scale, Goal 3 (scale −2 to +2) (PMM2-CDG patients [1]; P7, 12 months, 1.5 mg/kg day, improved balance to stand and walk, baseline −2): −1
- Goal attainment scale, Goal 2 (scale −2 to +2) (PMM2-CDG patients [1]; P7, 12 months, 1.5 mg/kg day, normalization of laboratory results (liver enzymes), baseline −2): −1
- clinical improvement and quality of life (GAS, self-reported) (PMM2-CDG patients [1]; all patients, words): all patients self-reported clinical improvement and quality of life improvement
- Modified BARS (max 54) (PMM2-CDG patients [2]; P5, 12 months, 1.5 mg/kg day, baseline 39): 29
- Modified BARS (max 54) (PMM2-CDG patients [2]; P5, 24 months, 2 mg/kg day, baseline 39): 33
- Modified BARS (max 54) (PMM2-CDG patients [2]; P5, 28 months, 3 mg/kg day, baseline 39): 30
- ataxia (modified BARS scores) (PMM2-CDG patients [2]; P5, P6, words): improvement in ataxia
- Modified BARS (max 54) (PMM2-CDG patients [2]; P6, 12 months, 1.5 mg/kg day, baseline 45): 29
- Modified BARS (max 54) (PMM2-CDG patients [2]; P6, 18 months, 3 mg/kg day, baseline 45): 27

Source: patent US20260335294A1, “TREATING CONGENITAL DISORDERS OF GLYCOSYLATION” (Mayo Foundation for Medical Education and Research, priority 2022, published 2026)
